Reference: patent US10927136B2, “Phosphorus prodrugs of pyrazolo-substituted pyrimidine sGC stimulators” (Cyclerion Therapeutics, Inc., priority 2016, dated 2021)

Assays:
[1] = Rat PK following intravenous and oral dosing; assay type: in vivo, male Sprague-Dawley rats
[2] = Ex-vivo rat intestinal fluid stability assay; assay type: in vitro ADME; design: half-life: dose or concentration left out as unconfirmed; details: 37° C.; for prodrug converted into its parent drug / cleaved: after 60 minutes of incubation; for half-life: rat intestinal (jejunum) fluid, read-out: disappearance half-life (T1/2)
Procedure: Phosphate prodrugs disclosed herein were designed to be cleaved by alkaline phosphatase(s) that are present on the apical brush-border membranes of the intestine, after which the more hydrophobic parent compound is readily absorbed. Phosphatases are also present in the liver and in the systemic circulation. In order to test the speed of cleavage of the prodrug into the parent drug, […] solutions of each of the test compounds were incubated in rat intestinal (jejunum) fluid. Samples were taken at times=0, 5, 15, 30 and 60 min and the mixtures were quenched by the addition of acetonitrile containing an internal standard. Samples were analyzed by full scan LC/MS. The following protocol was used:
10 mM DMSO stock solutions were thawed or prepared for the positive control (Enalapril) and each test article. Internal standard (IS) crash solution in acetonitrile (ACN) with 20 ng/ml of Compound Z, depicted below, was prepared. Stock (250 uM) was prepared from 10 mM in 50/50 acetonitrile/H2O. Rat intestinal fluid vials were thawed in a water bath at rt.
In a 96-well, 1 ml plate, 48 uL of rat intestinal fluid was aliquoted in triplicate for each time point. The t0 (“0 min”) time point was prepared separately by adding 450 ul of IS crash solution to 48 ul of intestinal fluid, then adding 2 uL of test compound. 2 ul of the 250 uM substock was added to initiate the reaction at 5 min, 15 min, 30 min, and 60 min. The plate prepared in the above steps was covered with a plastic or foil seal and was set in the 37° C. incubator, lightly shaking. For each time point, 450 ul of IS crash solution was added to quench the reaction. The plates were centrifuged at 4000 RPM for 10 minutes at 4° C. 50 ul of supernatant was transferred into 50 ul of H2O and analyzed using LC/MS.
The disappearance of the prodrug and the conversion to the parent were monitored over time.

[3] = Dog PK following IV and oral dosing; assay type: in vivo, male Beagle dogs; design: half-life / clearance / AUC(0-inf): dose or concentration left out as unconfirmed
Procedure: PK in dogs was determined following IV and oral dosing.
For the oral (PO) experiments, two groups of 5 male Beagle dogs each were used. […] IV doses were administered through an indwelling catheter in the cephalic vein. Following dose administration, the catheter was flushed with ca. 3 mL of saline. Oral suspension doses were delivered to the stomach using a syringe and gavage tube. Following oral dosage administration, the gavage tube was flushed with approximately 10 mL of water to ensure complete delivery of the full dose.
Plasma and urine samples were collected as follows: for the PO experiments, samples were collected at 15 min, 30 min, 1 hour, 2 hours, 3 hours, 4 hours, 6 hours, 8 hours, 24 hours, 32 hours and 48 hours post-dosing; for the IV experiments, samples were collected at 2 min, 5 min, 15 min, 30 min, 1 hour, 2 hours, 3 hours, 4 hours, 6 hours, 8 hours, 24 hours, 32 hours and 48 hours post-dosing. Blood samples (2 mL) were collected from the jugular, cephalic or saphenous veins. These samples were kept on ice until processed for plasma. Blood samples were centrifuged at 3200 rpm for 10 minutes at approximately 5° C. within 1 hour of collection. Plasma was split into two approximately equal aliquots, and directly transferred to a 96-well plate tube (1.1 mL). Plug caps were placed on the tubes and the tubes frozen at approximately −70° C. and stored until analysis.
Urine was collected from each animal by diversion from a urine collection pan placed beneath the cage of each animal into an appropriate collection container, surrounded by wet ice or ice packs throughout the collection. The total volume of urine collected at each interval was measured and recorded and a single 10 mL aliquot was collected and stored frozen at approximately −70° C. until analysis.
Plasma and urine were collected and analyzed for the presence of Compound I-1 and Intermediate 3 derived from Compound I-1.
Intermediate 3, Compound I-1 and the internal standard (IS, Compound Z) were extracted from plasma by precipitation. Samples were analyzed using liquid chromatography (LC) with tandem mass spectrometric detection (MS/MS) using electrospray ionization. The standard curve range was from 0.1 to 400 ng/mL.
Thawed plasma samples and the required amount of plasma for standards, blanks and dilutions. Prepared crash solution: room temp ACN containing 1 ng/mL Compound Z as Internal Standard. Created a 1× mixed (Intermediate 3 and Compound I-1) standard curve by diluting the 100× stocks (5 uL of each 100× standard into 490 uL of plasma). Transferred 50 uL of each plasma sample/dilution, standard, or blank. Added 200 uL of the crash solution containing IS. Vortexed for 5 minutes. Centrifuged at 16,000 g at room temperature for 10 min. Transferred 200 uL of each supernatant to a plate. Dried under nitrogen in a TurboVap at 55° C. Resuspended each sample in 50 uL of 0.1% Formic Acid, covered and vortexed. Analyzed by LC-MS/MS.

[4] = male, Beagle, plasma, dog, Compound I-1 0.36 mpk IV in PBS, analyte Compound I-1
[5] = plasma, Intermediate 3 dosed 1 mg/kg IV in PEG
[6] = plasma, Intermediate 3 dosed 3.0 mg/kg PO
[7] = male, Beagle, plasma, dog PO, Intermediate 3 in PEG400 capsules (2 mg/kg)

O=P(O)(O)OC(CNc1nc(-c2cc(-c3ccon3)n(Cc3ccccc3F)n2)ncc1F)(C(F)(F)F)C(F)(F)F [Compound I-1]
Vol. of Dist ([1]; Compound I-1 1 mg/kg IV in PBS, analyte Compound I-1): 4.4 ± 2.6 L/kg
prodrug converted into its parent drug ([2]; after 30 minutes of incubation): About 80%
prodrug converted into its parent drug / cleaved [2]: about 95%
half-life [2]: 16 min
Vol. of Dist ([3]; dog, Compound I-1 0.36 mpk IV in PBS, analyte Compound I-1): 0.09 ± 0.03 L/kg
average conversion to the parent ([3]; dog, Compound I-1 administered IV): 95%
AUC compared with parent dosed in PEG ([3]; dog, Compound I-1 dosed IV in PBS): comparable AUC to Intermediate 3
prodrug observed in plasma ([3]; dog, after PO administration of Compound I-1): Low levels
prodrug found in urine ([3]; dog, after dosing of Compound I-1): Negligible amounts
half-life ([3]; male, Beagle, dog, plasma, iv, Compound I-1 IV in PBS, analyte Compound I-1): ~15 min
AUC(0-inf) [3, 4]: 1550 ± 601 ng·h/mL
Cmax [3, 4]: 5110 ± 2150 ng/mL
clearance [3, 4]: 8.3 ± 3.1 mL/min/kg

O=P(O)(O)OCOC(CNc1nc(-c2cc(-c3ccon3)n(Cc3ccccc3F)n2)ncc1F)(C(F)(F)F)C(F)(F)F [Compound I-4]
prodrug converted into its parent drug / cleaved [2]: More than 99%
half-life [2]: 9 min

OC(CNc1nc(-c2cc(-c3ccon3)n(Cc3ccccc3F)n2)ncc1F)(C(F)(F)F)C(F)(F)F [Intermediate 3]
Vol. of Dist ([1]; Intermediate 3 dosed 1 mg/kg IV in PEG): 9.5 L/kg
Bioavail. (%) ([1]; Intermediate 3 dosed 3.0 mg/kg PO): 102%
AUC(0-inf) [1, 5]: 1100 ng·h/mL
Cmax [1, 5]: 227 ng/mL
clearance [1, 5]: 16 mL/min/kg
AUC(0-t) [1, 6]: 3600 ± 280 ng·h/mL
Cmax [1, 6]: 250 ± 10 ng/mL
Tmax [1, 6]: 480 min
half-life ([1]; plasma, iv, 1 mg/kg, Intermediate 3 dosed 1 mg/kg IV in PEG): 426 min
Cmax/C24 (ratio) ([3]; dog PO, Intermediate 3 in PEG400 capsules (2 mg/kg)): 3.6 ± 1.1 ratio
AUC [3, 7]: 5190 ± 1410 ng·h/mL
Cmax [3, 7]: 307 ± 116 ng/mL
Tmax [3, 7]: 90 ± 72 min
bioavailability ([3]; male, Beagle, plasma, dog PO, Intermediate 3 in PEG400 capsules (2 mg/kg), read-out: Bioavailability (% F)): 64 ± 12.5%
